Consider one compound from patent US20250382583A1, “ENHANCED METHODS FOR INDUCING AND MAINTAINING NAIVE HUMAN PLURIPOTENT STEM CELLS” (Washington University, priority 2021, published 2025).

Experiment [1] relates to WIBR3 OCT4-ΔPE-GFP+-naïve hESCs. Put plainly: Extended maintenance assay, OCT4-ΔPE-GFP reporter activity (imaging, qRT-PCR). Type of experiment: cell-based, human. The note with it: in the presence of ROCK inhibitor (Y) alone; 2.5 and 5 μM; two passages. The protocol:
(§1) Defining alternative naïve maintenance media: To define the activity of selected hit compounds during extended naïve culture, naïve hESCs derived from the primed state and maintained in 5i/L/A were dissociated with Accutase (Thermo Fischer Scientific, A1110501) and 1.5×10^5 single cells were seeded in 5i/L/A media on MEF-coated plates. After 24 hours, 5i/L/A media were switched to experimental maintenance conditions to validate hits from the screen. After 4-6 days the cells were split in a 1:2 or 1:3 ratio and further maintained for 4-6 days before analysis by FACS, qRT-PCR, AP staining, and/or RNA-seq. 5i/L/A media in which the MEK inhibitor PD0325901 was replaced with 5 μM AZ628 are represented as alternative 5i/L/A (a5i/L/A). FXGY, AXGY, AXGYU, PXGY, and GXGY media were prepared in serum-free N2B27 media supplemented with 1 μM PD166866, 5 μM AZ628, 5 μM AZ628 and 1 μM UNC0638, 1 μM PD0325901, and 5 μM GDC-0994, respectively, together with 2 μM XAV939, 2 μM Gö6983, and 10 μM Y-27632. During these assays cells were fed with fresh media every second day and cultured in 5% O2, 5% CO2 at 37° C. Detailed information on conditions used for defining alternative naïve maintenance media can be found in Tables 1-6.
(§2) Quantitative reverse transcriptase PCR (qRT-PCR): Total RNA was isolated using the E.Z.N.A. total RNA kit I and cDNA synthesis was performed from total RNA using the high-capacity cDNA reverse transcription kit (Applied Biosystems, 4368814). qRT-PCR was performed using PowerUp SYBR Green Master Mix (Applied Biosystems, A25743) on the StepOnePlus Real-Time PCR System (Applied Biosystems). Gene expression was normalized to RPLP0 and analyzed using the ΔCt method. Error bars represent the standard deviation (SD) of the mean of technical replicates.
For this purpose, WIBR3 OCT4-ΔPE-GFP+-naïve hESCs that were generated in the absence of reprogramming transgenes were used using the 5i/L/A cocktail. […] Compounds were tested at two different concentrations (2.5 and 5 μM), and cells were maintained for two passages (FIG. 2A).

The test system of experiment [2] is H9-naïve hESCs. Put plainly: Extended maintenance assay, flow cytometry for naïve-specific CD75 and SUSD2. The format is cell-based, human. The note with it: serum-free media supplemented with XGY, 2.5 μM compound. The method, then: as §1
Flow cytometry: Primed hESCs were single-cell dissociated using TrypLE Express, while Accutase was used for naïve hESCs. Cells were resuspended in fibroblast medium and centrifuged. Cell pellets were washed in 5 mL ice-cold PBS. The cells were then resuspended in […] fresh ice-cold FACS buffer (PBS supplemented with 5% FBS), and incubated with antibodies for 30 minutes on ice in the dark. The following antibodies were used: anti-SUSD2-PE (1:100), anti-CD75-eFluor 660 (1:100), anti-CD90-PE (1:100), anti-ITGA6-FITC (1:100) and EGFR-APC (1:25). Post-incubation the cells were washed once with 1 mL ice-cold PBS, resuspended in fresh 500 μl FACS buffer, and passed through a […] cell strainer into round bottom FACS tubes (Corning, #352235). Flow cytometry was performed using a BD LSRFortessa X-20 and the data were analyzed using the FlowJo software.

For experiment [3], the system named is H9-naïve hESCs. Put plainly: qRT-PCR for naïve-specific transcripts (KLF17, DNMT3L) during naïve maintenance. The format is cell-based, human. The conditions noted are these: in XAV/Gö/Y; KLF17 and DNMT3L. The method, then: as §1, §2
Background: In qPCR the cycle at which signal appears reflects the starting amount.

The test system of the next experiment is p-ERK1/2. The conditions noted are these: stated as known; cited from earlier work.

As for `Cn1nccc1Nc1nccc(-c2ccn([C@H](CO)c3ccc(Cl)c(F)c3)c(=O)c2)n1` [GDC-0994, (S)-1-(1-(4-chloro-3-fluorophenyl)-2-hydroxyethyl)-4-(2-((1-methyl-1H-pyrazol-5-yl)amino)pyrimidin-4-yl)pyridin-2(1H)-one], in experiment [1], the “activity in maintaining OCT4-ΔPE-GFP reporter activity after passaging” value is on record as “showed activity”. For the same compound, in the experiment with H9-naïve hESCs [2], the “sustaining CD75/SUSD2-positive cells over multiple passages” value is listed as “robustly sustained”. Besides, in the experiment with H9-naïve hESCs [3], the “concentration effective to maintain expression of naïve-specific transcripts (titration)” value was 5 µM. The “effect on phosphorylation of cellular ERK1/2” value with p-ERK1/2 was “not to alter”.
